The source of these data is paper PMC7694773, “Synthesis, 3D-QSAR, and Molecular Modeling Studies of Triazole Bearing Compounds as a Promising Scaffold for Cyclooxygenase-2 Inhibition” (Pharmaceuticals, 2020).

Structures are written as SMILES. Values joined by “and” are separate entries in the source; they are usually repeats but may differ in a detail not shown here. Equal values may be shown once. Read-outs that look alike come from different tables or passages of the source.

One data set concerns the target T1, human recombinant COX-2 (Homo sapiens, UniProt P35354).
T1 construct: purchased Cayman Chemical 560131
T1 sequence (P35354 18-604): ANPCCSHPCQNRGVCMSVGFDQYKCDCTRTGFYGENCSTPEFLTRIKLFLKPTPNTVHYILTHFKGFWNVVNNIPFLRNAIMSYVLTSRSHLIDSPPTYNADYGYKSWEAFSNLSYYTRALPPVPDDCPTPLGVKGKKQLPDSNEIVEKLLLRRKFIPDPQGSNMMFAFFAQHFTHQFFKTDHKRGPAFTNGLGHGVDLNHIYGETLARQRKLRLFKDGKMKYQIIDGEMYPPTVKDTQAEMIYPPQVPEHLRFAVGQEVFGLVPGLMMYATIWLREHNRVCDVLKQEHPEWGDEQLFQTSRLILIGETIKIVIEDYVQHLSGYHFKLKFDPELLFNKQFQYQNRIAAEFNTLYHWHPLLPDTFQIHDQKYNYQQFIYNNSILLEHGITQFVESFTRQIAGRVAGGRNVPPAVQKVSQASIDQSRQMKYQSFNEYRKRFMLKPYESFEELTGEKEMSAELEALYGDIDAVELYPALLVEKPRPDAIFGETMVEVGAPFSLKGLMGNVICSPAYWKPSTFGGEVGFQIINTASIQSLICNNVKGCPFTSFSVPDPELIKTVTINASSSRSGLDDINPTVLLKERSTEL
As to the kind of experiment: In vitro COX-2 inhibition, enzyme immunoassay kit (Cayman item no. 560131). The data set is classed as biochemical. The text has this: (§1) The in vitro COX-1/COX-2 isozyme inhibition studies measure the ability of tested compounds to inhibit bovine COX-1 and human recombinant COX-2 using an enzyme immunoassay (COX inhibitor screening assay kit, item no. 560131) according to the manufacturer’s instructions. […].

Another data set has as its target T2, bovine COX-1 (Ovis aries, UniProt P05979).
T2 construct: purchased Cayman Chemical 560131
T2 sequence (P05979 25-600): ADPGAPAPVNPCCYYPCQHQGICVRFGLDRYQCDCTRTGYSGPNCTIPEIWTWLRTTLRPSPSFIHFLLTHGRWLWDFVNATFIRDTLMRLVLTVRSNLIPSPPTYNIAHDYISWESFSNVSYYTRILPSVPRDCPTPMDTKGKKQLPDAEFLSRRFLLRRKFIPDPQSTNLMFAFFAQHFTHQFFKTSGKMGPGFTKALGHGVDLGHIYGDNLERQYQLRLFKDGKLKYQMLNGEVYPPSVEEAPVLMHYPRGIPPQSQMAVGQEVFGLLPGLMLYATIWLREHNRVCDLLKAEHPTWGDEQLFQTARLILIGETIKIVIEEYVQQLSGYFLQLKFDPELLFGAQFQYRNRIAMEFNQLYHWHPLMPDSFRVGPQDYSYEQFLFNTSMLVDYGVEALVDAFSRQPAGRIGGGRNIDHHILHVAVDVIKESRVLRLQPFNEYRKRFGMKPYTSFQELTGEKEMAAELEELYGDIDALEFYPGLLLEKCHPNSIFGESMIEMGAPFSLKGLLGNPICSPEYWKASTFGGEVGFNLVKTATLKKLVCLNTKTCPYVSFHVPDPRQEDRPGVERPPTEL
The data set is described as follows: In vitro COX-1 inhibition, enzyme immunoassay kit (Cayman item no. 560131). The note with it: mean of two determinations. The data set is classed as biochemical.
Source text: as §1

The next data set has as its target T3, egg albumin (Gallus gallus, UniProt P01012).
T3 sequence (P01012 1-386): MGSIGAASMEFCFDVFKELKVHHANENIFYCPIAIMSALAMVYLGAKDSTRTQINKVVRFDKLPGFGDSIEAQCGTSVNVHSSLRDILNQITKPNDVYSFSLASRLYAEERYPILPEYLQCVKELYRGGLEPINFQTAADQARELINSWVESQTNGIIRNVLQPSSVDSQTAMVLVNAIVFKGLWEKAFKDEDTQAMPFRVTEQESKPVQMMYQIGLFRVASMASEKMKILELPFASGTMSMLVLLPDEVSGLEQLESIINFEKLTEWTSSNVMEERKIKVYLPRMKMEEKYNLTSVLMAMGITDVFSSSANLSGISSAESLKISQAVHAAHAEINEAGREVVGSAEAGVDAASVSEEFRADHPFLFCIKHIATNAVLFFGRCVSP
As to the kind of experiment: In situ anti-inflammatory assay: inhibition of protein (albumin) denaturation. The note with it: for LogIC50 protein denaturation: GraphPad prism curve fit, IC50 in µM (Figure 3); for IC50: non-linear regression, sigmoidal dose-inhibition fit, GraphPad prism; for inhibition at 1000 µM / % of inhibition ± SEM at conc. 0.1 / % of inhibition ± SEM at conc. 1 / % of inhibition ± SEM at conc. 10 / % of inhibition ± SEM at conc. 100: protein denaturation, three replicates; for inhibition at 1000 µM: conc. 1000 µM, read-out: % of inhibition ± SEM at conc. 1000; for % of inhibition ± SEM at conc. 0.1: conc. 0.1 (µM); for % of inhibition ± SEM at conc. 1: conc. 1 (µM); for % of inhibition ± SEM at conc. 10: conc. 10 (µM); for % of inhibition ± SEM at conc. 100: conc. 100 (µM). How it is done: Protein denaturation is used for the evaluation of anti-inflammatory activity. In this methodology, generally, tertiary and secondary protein structures will typically be destroyed by the application of an external molecule or stress. The biological function of most bio-proteins is lost if it is denatured. It is well reported that a basis of inflammation is denaturation of protein.
The reaction mixture is molecules with serial dilutions (1000, 100, 10, 1, 0.1 µM), phosphate buffered saline (PBS; pH 6.4), and egg albumin. The control used was double distilled water (equal volume). […] After attaining ambient temperature, the absorbance of samples was measured spectrophotometrically at 660 nm using vehicle as blank. […] The experiment was performed in triplicate. Percent inhibition of protein denaturation was calculated using the Equation Inhibition (%) of protein denaturation inhibition (%) = (AC − AS)/AC × 100 where AC: absorbance of control, AS: absorbance of sample.

Where [1] appears, read: human recombinant COX-2, mean of two determinations, read-out: IC50 COX-2.
The mark [2] stands for this setting: pIC50 = −Log (IC50) of the COX-2 IC50, read-out: Activity (experimental pIC50, COX-2) (converted).

What is called melting point is the temperature of the solid-liquid transition. As usually defined, the inhibition is the drop in the measured response relative to a control, in per cent. As to `COc1ccc(C=Nn2c(S)nnc2COc2ccc3ccccc3c2)cc1` [Compound 9d, 4-((4-methoxybenzylidene)amino)-5-((naphthalen-2-yloxy)methyl)-4H-1,2,4-triazole-3-thiol], the melting point was in the range of 177 to 178 °C. At human recombinant COX-2, the “COX-2 S.I. (selectivity index, COX-1 IC50/COX-2 IC50)” value is 53.1. Further, on human recombinant COX-2 (setting [1]), the IC50 turned out to be 150 nM. For the same molecule, on human recombinant COX-2 (setting [2]), the IC50 was 150 nM. At bovine COX-1, this molecule displayed an IC50 of 7970 nM. Further, at egg albumin, the LogIC50 protein denaturation is 0.9126; the IC50 was 8170 nM and 8180 nM; the inhibition at 1000 µM came to 51%; the “% of inhibition ± SEM at conc. 0.1” value is recorded as 8.97±0.97%. Further, on egg albumin, the “% of inhibition ± SEM at conc. 1” value came out at 18.95±1.04%, the “% of inhibition ± SEM at conc. 10” value came out at 31.86±0.96% and the “% of inhibition ± SEM at conc. 100” value is on record as 49.08±1.05%.

On to `COc1ccc(C=Nn2c(COc3ccc4ccccc4c3)nnc2Sc2cnc(N)s2)cc1` [Compound 12d, 5-((4-((4-methoxybenzylidene)amino)-5-((naphthalen-2-yloxy)methyl)-4H-1,2,4-triazol-3-yl)thio)thiazol-2-amine], for which the melting point lay in the range of 69 to 70 °C. The “COX-2 S.I. (selectivity index, COX-1 IC50/COX-2 IC50)” value on human recombinant COX-2 was 311.0 and 325.0. Moreover, the IC50 at human recombinant COX-2 (setting [1]) is 40 nM. Also, on human recombinant COX-2 (setting [2]), the IC50 is 41.8 nM and 40.1 nM. The molecule also yielded an IC50 against bovine COX-1 of 13000 nM. Also, on egg albumin, the LogIC50 protein denaturation was -0.008534; the IC50 was 981 nM and 980 nM; the inhibition at 1000 µM stood at 91.2%; the “% of inhibition ± SEM at conc. 0.1” value was found to be 29.21±1.12%. Also, on egg albumin, the “% of inhibition ± SEM at conc. 1” value amounted to 59.20±1.34%, the “% of inhibition ± SEM at conc. 10” value is listed as 72.12±1.27% and the “% of inhibition ± SEM at conc. 100” value is on record as 89.31±1.26%.
